Measurements from article PMC6009943, “One-pot three-component synthesis of novel spirooxindoles with potential cytotoxic activity against triple-negative breast cancer MDA-MB-231 cells” (Journal of Enzyme Inhibition and Medicinal Chemistry, 2017).

Tests used:
MDA-MB-231 cells = test: In vitro anti-proliferative activity assay (MTT); format: cell-based; settings: Homo sapiens, 48 h incubation
Description: Cells lines were maintained as monolayers in Dulbecco’s Modified Eagle’s Medium (DMEM) supplemented with 10% FBS, 2 mM L-glutamine, 100 U/ml penicillin and 100 µg/ml streptomycin sulfate. Cells were sub-cultured with trypsine/EDTA solution, counted with haemocytometer and plated onto 96-well plates (5000 cells/well) and left overnight to form a semi-confluent monolayer. […] DMSO (100 µl/well) was added to dissolve the formazan crystals with shaking for 10 min after which the absorbance was read at 590 nm against no cell blanks on a FLuo Star Optima microplate reader (BMG Technologies, Germany). Cell proliferation was calculated comparing the OD values of the DMSO control wells and those of the samples represented as % proliferation to the control.
The in vitro anti-proliferative activity of the newly synthesized spirooxindoles 6a–p was examined against TNBC MDA-MB-231 cells. This assay was performed utilizing the 3–(4,5-dimethylthiazol-2-yl)-2,5-diphenyltetrazolium bromide (MTT) colorimetric assay as described by Mosmann[18]. Adriamycin was included in this assay as a reference drug.

SMILES	melting point	IC50 (MDA-MB-231 cells)
Cc1ccc(C2=C(C#N)C3(C(=O)Nc4ccccc43)c3c(-c4cccs4)nn(-c4ccccc4)c3N2)cc1 (stereo not shown) [Compound 6b, 2-Oxo-1'-phenyl-3'-(thiophen-2-yl)-6'-(p-tolyl)-1',7'-dihydrospiro[indoline-3,4'-pyrazolo[3,4-b]pyridine]-5'-carbonitrile]	285 to 287 °C	29.7 µM
COc1ccc(C2=C(C#N)C3(C(=O)Nc4ccc(OC)cc43)c3c(-c4cccs4)nn(-c4ccccc4)c3N2)cc1 (stereo not shown) [Compound 6o, 5-Methoxy-6'-(4-methoxyphenyl)-2-oxo-1'-phenyl-3'-(thiophen-2-yl)-1',7'-dihydrospiro[indoline-3,4'-pyrazolo[3,4-b]pyridine]-5'-carbonitrile]	279 to 281 °C	> 50 µM
N#CC1=C(c2ccc(Cl)cc2)Nc2c(c(-c3cccs3)nn2-c2ccccc2)C12C(=O)Nc1ccc(Br)cc12 (stereo not shown) [Compound 6l, 5-Bromo-6'-(4-chlorophenyl)-2-oxo-1'-phenyl-3'-(thiophen-2-yl)-1',7'-dihydrospiro[indoline-3,4'-pyrazolo[3,4-b]pyridine]-5'-carbonitrile]	293 to 294 °C	30.6 µM
COc1ccc2c(c1)C1(C(=O)N2)C(C#N)=C(c2ccccc2)Nc2c1c(-c1cccs1)nn2-c1ccccc1 (stereo not shown) [Compound 6m, 5-Methoxy-2-oxo-1',6'-diphenyl-3'-(thiophen-2-yl)-1',7'-dihydrospiro[indoline-3,4'-pyrazolo[3,4-b]pyridine]-5'-carbonitrile]	276 to 278 °C	17.5 µM
Cc1ccc(C2=C(C#N)C3(C(=O)Nc4ccc(Cl)cc43)c3c(-c4cccs4)nn(-c4ccccc4)c3N2)cc1 (stereo not shown) [Compound 6f, 5-Chloro-2-oxo-1'-phenyl-3'-(thiophen-2-yl)-6'-(p-tolyl)-1',7'-dihydrospiro[indoline-3,4'-pyrazolo[3,4-b]pyridine]-5'-carbonitrile]	286 to 288 °C	18.2 µM
COc1ccc2c(c1)C1(C(=O)N2)C(C#N)=C(c2ccc(C)cc2)Nc2c1c(-c1cccs1)nn2-c1ccccc1 (stereo not shown) [Compound 6n, 5-Methoxy-2-oxo-1'-phenyl-3'-(thiophen-2-yl)-6'-(p-tolyl)-1',7'-dihydrospiro[indoline-3,4'-pyrazolo[3,4-b]pyridine]-5'-carbonitrile]	268 to 269 °C	> 50 µM
N#CC1=C(c2ccc(Cl)cc2)Nc2c(c(-c3cccs3)nn2-c2ccccc2)C12C(=O)Nc1ccc(Cl)cc12 (stereo not shown) [Compound 6h, 5-Chloro-6'-(4-chlorophenyl)-2-oxo-1'-phenyl-3'-(thiophen-2-yl)-1',7'-dihydrospiro[indoline-3,4'-pyrazolo[3,4-b]pyridine]-5'-carbonitrile]	281 to 283 °C	16.6 µM
COc1ccc2c(c1)C1(C(=O)N2)C(C#N)=C(c2ccc(Cl)cc2)Nc2c1c(-c1cccs1)nn2-c1ccccc1 (stereo not shown) [Compound 6p, 6'-(4-Chlorophenyl)-5-methoxy-2-oxo-1'-phenyl-3'-(thiophen-2-yl)-1',7'-dihydrospiro[indoline-3,4'-pyrazolo[3,4-b]pyridine]-5'-carbonitrile]	255 to 257 °C	> 50 µM
COc1ccc(C2=C(C#N)C3(C(=O)Nc4ccccc43)c3c(-c4cccs4)nn(-c4ccccc4)c3N2)cc1 (stereo not shown) [Compound 6c, 6'-(4-Methoxyphenyl)-2-oxo-1'-phenyl-3'-(thiophen-2-yl)-1',7'-dihydrospiro[indoline-3,4'-pyrazolo[3,4-b]pyridine]-5'-carbonitrile]	296 to 298 °C	37.8 µM
COc1cccc2c1C(=O)c1c(O)c3c(c(O)c1C2=O)C[C@@](O)(C(=O)CO)C[C@@H]3O[C@H]1C[C@H](N)[C@H](O)[C@H](C)O1 [Adriamycin, reference compound]	–	0.12 µM
